Assay results reported in article PMC8002893, “Influence of Complexation of Thiosemicarbazone Derivatives with Cu (II) Ions on Their Antitumor Activity against Melanoma Cells” (International Journal of Molecular Sciences, 2021).
Several values for one entry are separate records, joined by “and”; a condition that tells them apart may be missing. Identical values can stand only once.

Tests used:
[1] = test system: BJ human normal fibroblast cells; assay: MTT cell viability assay, BJ normal fibroblasts; type: cell-based; conditions: MTT test, 24 h treatment
Method: (§1) The evaluation of cytotoxicity of tested compounds was carried out on the G361, A375, and SK-MEL-28 human melanoma cells and BJ human normal fibroblast cells. The cell lines were obtained from American Type Culture Collection (ATCC, Manassas, VA, USA). The cells were cultured at 37 °C in the presence of 5% CO2 in atmosphere. The culture medium (Dulbecco’s Modified Eagle’s Medium for G361 and A375 and Eagle’s Minimum Essential Medium for SK-MEL-28 and BJ) was supplemented with 10% foetal bovine serum. The cells morphology was examined under inverted phase contrast microscope Nikon Eclipse Ti (Nikon, Tokyo, Japan). The authenticity of tested cell lines was verified by short tandem repeat (STR) genotyping in the Department of Forensic Medicine (Medical University of Lublin, Lublin, Poland).
(§2) The cells were seeded into 96-well plates (in concentration: BJ, A375, and SK-MEL-28—1 × 10^5 cells/mL, G361—1.5 × 10^5 cells/mL) and cultured until they reach 70–80% confluency. Then the cells were incubated with tested compounds and dacarbazine in concentrations ranging from 10 to 500 µM or DMSO as vehicle in control cultures for next 24 h (max. DMSO concentration <0.5%). The compounds cytotoxicity was evaluated with the MTT colorimetric method based on the ability of viable cells to the transformation of tetrazolium salts (3-[4,5-dimethylthiazol-2-yl]-2,5-) diphenyltetrazolium bromide, MTT) to purple formazan, by cellular dehydrogenases. After 24-h-incubation cell cultures were supplemented with 20 µL of 5 mg/mL MTT (Thermofisher, Waltham, MA, USA) stock in PBS (Corning, NY, USA), and the incubation was continued for 4 h at 37 °C. Next, the medium with MTT was removed, and the formed crystals were dissolved in 200 µL of DMSO (dimethyl sulfoxide, Avantor, Gliwice, Poland). The solution absorbency was measured at 570 nm, using a PowerWave™ xs microplate spectrophotometer (BioTek Instruments, Winooski, VT, USA). The experiment was performed three times with three replicates for each concentration of tested compounds. IC50 values were determined using the AAT Bioquest IC50 calculator [51]. On the basis of obtained IC50 values for normal and malignant cells, A375 cell line and three tested compounds (CuT1, Cu10, CuT16) were chosen for further investigation.

[2] = test system: G361 human melanoma cells; assay: MTT cell viability assay, G361 melanoma; type: cell-based; conditions: G361, MTT test, 24 h treatment
Method: as §1, §2

[3] = test system: A375 human melanoma cells; assay: MTT cell viability assay, A375 melanoma; type: cell-based; conditions: for IC50: A375, MTT test, 24 h treatment
Method: as §1, §2

[4] = test system: SK-MEL-28 human melanoma cells; assay: MTT cell viability assay, SK-MEL-28 melanoma; type: cell-based; conditions: SK-MEL-28, MTT test, 24 h treatment
Method: as §1, §2

DNA of A375 cells = assay: DNA damage evaluation: number of AP sites; type: cell-based, human; conditions: A375, 24 h, concentration corresponding to IC50; control 0.67 ± 0.08
Method: DNA damage was evaluated on the basis of a basic (AP) sites presence, that arose in response to oxidative damage or as an intermediate in base excision repair pathway. The A375 cells were seeded in 6-well culture plates at a density 1 × 10^5 cells/mL and after 70–80% confluency achievement the cells were treated with CuT1, Cu10, CuT16 in concentrations corresponding to IC50 values or DMSO as vehicle in control cultures. After 24 h of incubation genomic DNA was isolated using Syngen DNA Mini Kit (Syngen Biotech, Wroclaw, Poland) according to the manufacturer’s instruction. The concentrations of isolated DNA for all samples were equalized to 100 µg/mL. The measurements of the number of AP sites were evaluated with DNA Damage Quantification Kit (Dojindo, Japan) according to the manufacturer’s instruction. The DNA was treated with Aldehyde Reactive Probe (ARP) to tag all of the AP sites with a biotin residue. Then all of the AP sites were quantified using avidin—biotin assay. The coloured product of horseradish peroxidase conjugated to the avidin was detected at 650 nm using a PowerWave™ xs microplate spectrophotometer (BioTek Instruments, Winooski, VT, USA).

ERCC = assay: qRT-PCR gene expression in A375 cells: ERCC; type: cell-based, human; conditions: A375, 24 h, concentration corresponding to IC50; RQ = 2^-ΔΔCt vs control
Method: (§3) The expression level of genes connected with DNA repair and oxidative stress response was evaluated with quantitative real-time PCR (qRT-PCR) method. The A375 cells were seeded in 6-well culture plates at a density 1 × 10^5 cells/mL and after 70–80% confluency achievement the cells were treated with CuT1, Cu10, CuT16 in concentrations corresponding to IC50 values or DMSO as vehicle in control cultures. After 24h of incubation total RNA was isolated using the Syngen Blood/Cell RNA Mini Kit (Syngen Biotech, Wroclaw, Poland). All samples were transcribed using NG dART RT-PCR reagents (EURx, Gdansk, Poland) according to the manufacturer’s instructions. The relative mRNA expression level was determined by relative quantification method (ΔΔCt) using 18S ribosomal N5 (RNA18SN5) and beta-actin (ACTB) as endogenous controls. The reference genes were selected on the basis of our preliminary studies, where RNA18SN5 and ACTB remained unaffected by the experimental conditions. The PCR was conducted in triplicate using Applied Biosystems® 7500 Fast Real-Time PCR system (Applied Biosystems, Foster City, CA, USA) and SG qPCR Master Mix (2×) (EURx, Gdansk, Poland) in accordance with the manufacturer’s protocol. Data was presented and analysed as RQ values (RQ = 2^−ΔΔCt).

MGMT = assay: qRT-PCR gene expression in A375 cells: MGMT; type: cell-based, human; conditions: A375, 24 h, concentration corresponding to IC50; RQ = 2^-ΔΔCt vs control
Method: as §3

OGG1 = assay: qRT-PCR gene expression in A375 cells: OGG1; type: cell-based, human; conditions: A375, 24 h, concentration corresponding to IC50; RQ = 2^-ΔΔCt vs control
Method: as §3

MLH1 = assay: qRT-PCR gene expression in A375 cells: MLH1; type: cell-based, human; conditions: A375, 24 h, concentration corresponding to IC50; RQ = 2^-ΔΔCt vs control
Method: as §3

PARP1 = assay: qRT-PCR gene expression in A375 cells: PARP1; type: cell-based, human; conditions: A375, 24 h, concentration corresponding to IC50; RQ = 2^-ΔΔCt vs control
Method: as §3

ATM = assay: qRT-PCR gene expression in A375 cells: ATM; type: cell-based, human; conditions: A375, 24 h, concentration corresponding to IC50; RQ = 2^-ΔΔCt vs control
Method: as §3

XPC = assay: qRT-PCR gene expression in A375 cells: XPC; type: cell-based, human; conditions: A375, 24 h, concentration corresponding to IC50; RQ = 2^-ΔΔCt vs control
Method: as §3

MSH2 = assay: qRT-PCR gene expression in A375 cells: MSH2; type: cell-based, human; conditions: A375, 24 h, concentration corresponding to IC50; RQ = 2^-ΔΔCt vs control
Method: as §3

CAT = assay: qRT-PCR gene expression in A375 cells: CAT; type: cell-based, human; conditions: A375, 24 h, concentration corresponding to IC50; RQ = 2^-ΔΔCt vs control
Method: as §3

GPX2 = assay: qRT-PCR gene expression in A375 cells: GPX2; type: cell-based, human; conditions: A375, 24 h, concentration corresponding to IC50; RQ = 2^-ΔΔCt vs control
Method: as §3

SOD2 = assay: qRT-PCR gene expression in A375 cells: SOD2; type: cell-based, human; conditions: A375, 24 h, concentration corresponding to IC50; RQ = 2^-ΔΔCt vs control
Method: as §3

A375 cells = assay: Microscopic observation of cell morphology; type: cell-based, human; conditions: A375, 24 h, concentration corresponding to IC50
Method: The MTT test results for selected compounds were verified by microscopic observations of cell morphology. […] A large part of the cells floated in the culture medium (Figure 5).
as §1

Compound | IC50 ([1]; Homo sapiens, Fibroblast) [µM] | IC50 ([2]; Homo sapiens, G-361) [µM] | IC50 ([3]; Homo sapiens, A-375) [µM] | IC50 ([4]; Homo sapiens) [µM] | melting point [°C] | also measured
S=C(NN=Cc1ccc(Cl)c(Cl)c1)Nc1ccccc1Cl.S=C(NN=Cc1ccc(Cl)c(Cl)c1)Nc1ccccc1Cl.[Cl-].[Cl-].[Cu+2] [CuT12] |  |  |  |  |  | IC50 [1]: 42.9 ± 1.17 µM; IC50 [2]: 157 ± 2.75 µM; IC50 [3]: 40.5 ± 0.98 µM; IC50 [4]: 46.1 ± 2.74 µM
S=C(NN=Cc1ccc(Cl)c(Cl)c1)Nc1ccccc1Cl [T12, 2-[(3,4-Dichlorophenyl)methylidene]-N-(2-chlorophenyl)hydrazine-1-carbothioamide] | 129 ± 7.09 | 177 ± 4.09 | 112 ± 12.8 | 99.6 ± 5.76 | 210 to 211 | 
COc1ccc(C=NNC(=S)Nc2ccccc2)cc1OC [T1] | 358 ± 7.85 | 488.1 ± 1.66 | 321 ± 2.85 | > 500 |  | 
COc1ccc(C=NNC(=S)Nc2ccccc2Cl)cc1OC.COc1ccc(C=NNC(=S)Nc2ccccc2Cl)cc1OC.[Cl-].[Cl-].[Cu+2] [CuT10] |  |  |  |  |  | IC50 [1]: 203 ± 8.67 µM; IC50 [2]: 251 ± 11.1 µM; IC50 [3]: 26.1 ± 1.75 µM; toxicity to A375 / malignant cells versus normal cells (in words) ([3]; from IC50 values, MTT, 24 h): less toxic for normal cells; IC50 [4]: 133 ± 8.34 µM; AP sites number (DNA of A375 cells): 2.043 ± 0.02 AP/100 kbp; Mean RQ ERCC mRNA (ERCC): 1.215; Mean RQ MGMT mRNA (MGMT): 0.448; Mean RQ OGG1 mRNA (OGG1): 0.264 ± 0.071 and 0.264; Mean RQ MLH1 mRNA (MLH1): 0.337; Mean RQ PARP1 mRNA (PARP1): 0.342; Mean RQ ATM mRNA (ATM): 2.038; Mean RQ XPC mRNA (XPC): 1.456; Mean RQ MSH2 mRNA (MSH2): 1.337; Mean RQ CAT mRNA (CAT): 0.801; Mean RQ GPX2 mRNA (GPX2): 0.022; Mean RQ SOD2 mRNA (SOD2): 1.430; cell morphology (in words) (A375 cells): became round and had poor adherence
S=C(NN=Cc1ccc(Br)cc1)Nc1ccccc1Cl [T9, 2-[(4-Bromophenyl)methylidene]-N-(2-chlorophenyl)hydrazine-1-carbothioamide] |  |  |  |  | 209 to 211 | 
COc1ccc(C=NNC(=S)Nc2ccccc2C)cc1OC [T7, 2-[(3,4-Dimethoxyphenyl)methylidene]-N-(2-methylphenyl)hydrazine-1-carbothioamide] |  |  |  |  | 205 to 206 | 
S=C(NN=Cc1ccc(Br)cc1)Nc1cccc(Cl)c1.[Cl-].[Cl-].[Cu+2] [CuT13] |  |  |  |  |  | IC50 [1]: 130 ± 3.45 µM; IC50 [2]: 148 ± 9.77 µM; IC50 [3]: 110 ± 2.95 µM; IC50 [4]: 119 ± 9.75 µM
CNC(=S)NN=C(C)c1ccc(N)cc1 [T4, 2-[1-(4-Aminophenyl)ethylidene]-N-methyl-hydrazine-1-carbothioamide] |  |  |  |  | 170 to 172 | 
CC(=NNC(=S)Nc1ccccc1Cl)c1ccccc1 [T11, N-(2-Chlorophenyl)-2-(1-phenylethylidene)hydrazine-1-carbothioamide] |  |  |  |  | 115 to 117 | 
S=C(NN=Cc1ccc(Cl)c(Cl)c1)Nc1ccc(Cl)cc1 [T17, N-(4-Chlorophenyl)-2-[(3,4-dichlorophenyl)methylidene]hydrazine-1-carbothioamide] |  |  |  |  | 202 to 204 | 
S=C(NN=Cc1ccc(Br)cc1)Nc1cccc(Cl)c1 [T13, 2-[(4-Bromophenyl)methylidene]-N-(3-chlorophenyl)hydrazine-1-carbothioamide] | 412.8 ± 3.23 | 396 ± 6.74 | 389 ± 7.06 | 399 ± 4.64 | 162 to 164 | 
S=C(NN=Cc1ccc(Br)cc1)Nc1ccc(Cl)cc1 [T18, 2-[(4-Bromophenyl)methylidene]-N-(4-chlorophenyl)hydrazine-1-carbothioamide] |  |  |  |  | 182 to 184 | 
Cc1ccccc1NC(=S)NN=Cc1ccc(Br)cc1 [T6, 2-[(4-Bromophenyl)methylidene]-N-(2-methylphenyl)hydrazine-1-carbothioamide] |  |  |  |  | 178 to 180 | 
S=C(NN=Cc1ccc(Cl)c(Cl)c1)Nc1cccc(Cl)c1 [T15, N-(3-Chlorophenyl)-2-[(3,4-dichlorophenyl)methylidene]hydrazine-1-carbothioamide] |  |  |  |  | 210 to 212 | 
COc1ccc(C=NNC(=S)Nc2ccc(Cl)cc2)cc1OC [T16] | > 500 | > 500 | > 500 | > 500 | 200 to 202 | 
COc1ccc(C=NNC(=S)Nc2ccccc2Cl)cc1OC [T10] | 402 ± 13 | 370 ± 9.34 | 202 ± 4.87 | < 500 | 179 to 180 | 
CN(C)/N=N/c1[nH]cnc1C(N)=O [DTIC, dacarbazine, reference compound] | > 500 | 426 ± 4.74 | 413 ± 7.08 | 370 ± 9.46 |  | 
Cc1ccccc1NC(=S)NN=Cc1ccc(Cl)c(Cl)c1 [T8, 2-[(3,4-Dichlorophenyl)methylidene]-N-(2-methylphenyl)hydrazine-1-carbothioamide] |  |  |  |  | 200 to 202 | 
